Measurements as given in PubChem BioAssay AID687000 (Broad Institute, 2013).
Where “and” joins values, the source holds several entries; their conditions need not be identical. Equal values may be shown once. Calls of active or inactive are those of the source.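 Rule for the calls: active = fitted dose curve reaches 40% lysis signal rise at or below the highest valid concentration tested for that sample; inconclusive = flat fit between 30% and 70%, or poor curve fit; inactive = signal falls, stays flat within 30%, or no crossing.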

System: C. neoformans lysis, adenylate kinase release luminescence, 4 h
Experiment: C. neoformans lysis by adenylate kinase leakage – AK release luminescence, cherry-picks, dose response (AID 687000)

Row | SMILES | AC40
1 | COC(=O)C1=C(C)N(Cc2ccccc2)C(=S)N[C@H]1c1ccc(Br)cc1 | 2.89 µM and 9.81 µM
2 | COCCN1C(=S)N[C@@H](c2ccccc2)C(C(=O)OC)=C1C | 13.5 µM
3 | Cc1ccc(S(=O)(=O)N[C@H]2C=C[C@@H](CC(=O)N3CCC(Cc4ccccc4)CC3)O[C@H]2CO)cc1 | > 15 µM (inactive)
4 | O=C(Nc1ccccc1N1CCOCC1)c1cccc([N+](=O)[O-])c1 | > 7.5 µM (inactive)
5 | CC(C)CC#Cc1cnc2c(c1)C(=O)N([C@H](C)CO)C[C@H](C)[C@@H](CN(C)Cc1cccc(F)c1)O2 | > 15 µM (inactive)
6 | O=C(Cc1ccccc1)N[C@H]1C=C[C@@H](CC(=O)N2CCOCC2)O[C@@H]1CO | 4.91 µM
7 | CCN1C(=S)N[C@@H](c2ccccc2)C(C(=O)OC)=C1C | > 15 µM (inactive)
8 | COc1ccc(N2CCN(C(=O)Cc3cccs3)CC2)cc1 | > 15 µM (inactive)
9 | COC(=O)C1=C(C)N(Cc2ccc(F)cc2)C(=S)NC1c1cccc(Cl)c1 (centres undefined) | 2.41 µM and 3.17 µM
10 | COc1ccc(C(=O)NC(=S)Nc2ccccc2N2CCOCC2)cc1[N+](=O)[O-] | > 15 µM (inactive)
11 | CCc1ccc(C(=O)NC(=S)NCc2cccnc2)cc1 | 8.42 µM
12 | COc1ccc(C(=O)NC(=S)Nc2ccccc2N2CCCCC2)cc1[N+](=O)[O-] | 3.29 µM
13 | COc1ccccc1/C=N/NC(=S)NCc1ccco1 | > 15 µM (inactive)
14 | C[C@H]1CN([C@@H](C)CO)C(=O)Cc2cc(NS(C)(=O)=O)ccc2O[C@@H]1CN(C)Cc1ccc(Cl)c(Cl)c1 | > 15 µM (inactive)
15 | COc1cccc(-c2ccc3c(c2)[C@H]2[C@H](CCN2C(=O)Cc2ccncc2)[C@H](CO)N3C)c1 | > 15 µM (inactive)
16 | Cc1cc(Cl)ccc1NC(=S)NCc1ccc(F)cc1 | 2.25 µM
17 | S=C(Nc1ccccc1)Nc1cc(Cl)ccc1Oc1ccccc1 | > 7.5 µM (inactive)
18 | CCOC(=O)NC(=S)Nc1ccc(C(C)(C)C)cc1 | 1.21 µM
19 | CCNC(=O)C[C@H]1CC[C@H](NC(=O)NC2CCCCC2)[C@@H](CO)O1 | > 15 µM (inactive)
20 | COC(=O)C1=C(C)N(Cc2ccc(Cl)cc2)C(=S)NC1c1cccc(F)c1 (centres undefined) | 13.1 µM
21 | CCOC(=O)NC(=S)Nc1ccc(C(C)(C)C)cc1Br | 3.16 µM
22 | C[C@H](CO)N1C[C@H](C)[C@@H](CN(C)CC2CCOCC2)Oc2ncc(C#Cc3ccc(F)cc3)cc2C1=O | > 15 µM (inactive)

Row | SMILES | AC40
23 | COc1cccc(S(=O)(=O)N(C)C[C@@H]2OCc3ccccc3-c3ccccc3C(=O)N([C@@H](C)CO)C[C@@H]2C)c1 | > 15 µM (inactive)
24 | Cc1ccc(OCCn2c(=S)[nH]c3ccccc32)c(C(C)C)c1 | 0.883 µM
25 | COc1cccc(C(=O)NC(=S)Nc2ccccc2N2CCOCC2)c1 | > 15 µM (inactive)
26 | O=C(C1CCOCC1)N1CC[C@@H]2[C@@H](CO)Nc3ccc(Br)cc3[C@@H]21 | > 15 µM (inactive)
27 | CC(C)NC(=O)N[C@H]1CC[C@@H](CCNC(=O)C2CC2)O[C@H]1CO | > 15 µM (inactive)
28 | C[C@@H]1CCCCO[C@@H](CN(C)C(=O)Nc2ccc3c(c2)OCO3)[C@@H](C)CN([C@H](C)CO)C(=O)c2cc(NC(=O)Nc3cccc4ccccc34)ccc2O1 | > 15 µM (inactive)
29 | C[C@H]1CN([C@@H](C)CO)C(=O)c2cccc(NS(=O)(=O)c3ccc(Cl)cc3)c2O[C@@H]1CN(C)CC1CC1 | 3.75 µM
30 | CC(C)c1ccccc1NC(=S)NN(Cc1ccccc1)c1ccccc1 | > 15 µM (inactive)
31 | C[C@H]1CN([C@@H](C)CO)S(=O)(=O)c2ccc(Br)cc2O[C@@H]1CN(C)C(=O)CCN1CCCCC1 | > 15 µM (inactive)
32 | N#Cc1ccc(C23CC4(C2)[C@H](CN(Cc2ccc(C(F)(F)F)cc2)[C@@H]4c2ccccc2)C3c2ccc(C(F)(F)F)cc2)cc1 (some centres undefined) | > 15 µM (inactive)
33 | O=C(NC(=S)Nc1ccccc1N1CCCC1)c1ccccc1[N+](=O)[O-] | > 15 µM (inactive)
34 | COC(=O)C1=C(C)N(Cc2ccc(Cl)cc2)C(=S)NC1c1ccc(Br)cc1 (centres undefined) | 0.781 µM
35 | S=C(NCc1ccccc1)NCC1COc2ccccc2O1 (centres undefined) | 9.32 µM
36 | C[C@H](CO)N1C[C@H](C)[C@H](CN(C)Cc2ccccc2)OCCCC[C@H](C)Oc2ccc(NS(=O)(=O)c3cccs3)cc2C1=O | > 15 µM (inactive)
37 | COC(=O)C1=C(C)N(Cc2ccc(F)cc2)C(=S)NC1c1cccc(F)c1 (centres undefined) | 14.2 µM and 2.63 µM
38 | COCC(=O)Nc1ccc2c(c1)C(=O)N(C)C[C@H](OC)[C@@H](C)CN(C(=O)c1ccccc1)[C@@H](C)CO2 | > 15 µM (inactive)
39 | CCC(=O)N(C)C[C@@H]1Oc2cc(C#CC(C)(C)O)ccc2S(=O)(=O)N([C@H](C)CO)C[C@H]1C | > 15 µM (inactive)
40 | Cc1ccc(CSc2ncnc3c2cnn3-c2ccc(C)cc2)cc1 | > 15 µM (inactive)
41 | Fc1ccccc1NC(=S)NN(Cc1ccccc1)c1ccccc1 | 5.17 µM
42 | CCCCNC(=S)N/N=C/c1ccc(C#N)cc1 | 4.58 µM
43 | O=C(NC(=S)Nc1ccccc1N1CCOCC1)c1ccc(Br)cc1 | > 15 µM (inactive)
44 | O=C(NC(=S)Nc1cc(Cl)ccc1N1CCOCC1)c1ccccc1[N+](=O)[O-] | 13.6 µM

Row | SMILES | AC40
45 | O=C(NC1CCCCC1)N[C@H]1C=C[C@@H](CC(=O)N2CCOCC2)O[C@@H]1CO | > 15 µM (inactive)
46 | COC(=O)C1=C(C)N(Cc2ccccc2)C(=S)NC1c1cccc(OC)c1 (centres undefined) | > 15 µM (inactive) and > 16 µM (inactive)
47 | Cc1ccc(C)c(NC(=O)C2(C)CCCN2C(=O)C(C)C)c1 (centres undefined) | 7.4 µM
48 | COC(=O)C1=C(C)N(Cc2ccc(Cl)cc2)C(=S)NC1c1ccc(OC)cc1 (centres undefined) | 11.8 µM
49 | O=C(CN(c1ccc(F)cc1)S(=O)(=O)c1ccccc1)N1CCOCC1 | > 15 µM (inactive)
50 | Cc1c(C(=O)NC(=S)Nc2ccccc2N2CCCC2)cccc1[N+](=O)[O-] | > 15 µM (inactive)
51 | Fc1ccccc1NC(=S)NCCc1cccc(Cl)c1 | 3.27 µM
52 | COc1ccc(CN(C)C[C@H]2Oc3ccc(NC(=O)Nc4ccc(F)cc4)cc3CC(=O)N([C@@H](C)CO)C[C@@H]2C)cc1 | > 16 µM (inactive)
53 | CCc1nc(N2CCCCC2C)c2oc3ccccc3c2n1 (centres undefined) | 1.65 µM
54 | O=C(N[C@H]1CC[C@H](CCn2cc(-c3ccccn3)nn2)O[C@H]1CO)c1ccc(F)cc1 | > 15 µM (inactive)
55 | COC(=O)C1=C(C)N(Cc2ccccc2)C(=S)N[C@H]1c1cccc(C(F)(F)F)c1 | > 15 µM (inactive)
56 | O=C(NC(=S)Nc1cccc(F)c1)c1cccc([N+](=O)[O-])c1 | 3.02 µM
57 | Cc1cc(C)c(NC(=O)C2CCCN2C(=O)NC2CCCCC2)c(C)c1 (centres undefined) | 10.4 µM
58 | Cc1noc(C)c1NC(=O)N(C)C[C@H]1OCCCC[C@H](C)Oc2ccc(NC(=O)NC(C)C)cc2C(=O)N([C@@H](C)CO)C[C@@H]1C | > 15 µM (inactive)
59 | COc1ccc(CNC(=S)NCc2ccc(OC)cc2)cc1 | > 15 µM (inactive)
60 | C[C@@H]1CN([C@@H](C)CO)C(=O)CCCn2nncc2CO[C@H]1CN(C)C(=O)Oc1cccc2ccccc12 | > 15 µM (inactive)
61 | COC(=O)C1=C(C)N(Cc2ccc(Br)cc2)C(=S)NC1c1ccc(F)cc1 (centres undefined) | 4.62 µM and 7.82 µM
62 | C[C@@H]1CN([C@H](C)CO)S(=O)(=O)c2ccc(C#CC3CC3)cc2O[C@H]1CN(C)CC1CCOCC1 | > 15 µM (inactive)
63 | COC(=O)C1=C(C)N(Cc2ccccc2)C(=S)N[C@H]1c1cccc(F)c1 | 11.7 µM
64 | C[C@H](CO)N1C[C@H](C)[C@H](CN(C)C(=O)Nc2ccc3c(c2)OCO3)Oc2ncc(C#CC(C)(C)O)cc2C1=O | > 15 µM (inactive)
